Data published in patent US20160229847A1, “NOVEL BICYCLIC PYRIDINONES AS GAMMA-SECRETASE MODULATORS” (PFIZER INC., priority 2013, published 2016).
Structures can show the parent of a compound that is named as a salt. Where two headings read alike, the source gives them in different places.

Target: γ-secretase (Cricetulus griseus, UniProt G3HNF2)
Experiment: Cell-Based γ-Secretase Assay with ELISA Readout (production of amyloid beta protein Aβ(1-42))
Details: human WT-APP overexpressing CHO cells, ~24 h incubation, Aβ(1-42) ELISA
[1] = read-out: Aβ 42B IC50 (nM) (Geometric Mean of 2-5 Determinations), Table 5, geometric mean of 2-5 determinations

Description: The ability of compounds to modulate production of amyloid beta protein Aβ(1-42) was determined using human WT-APP overexpressing CHO cells. Cells were plated at 22,000 cells/100 μL well in 96 well tissue culture treated, clear plates (Falcon) in DMEM/F12 based medium and incubated for 24 h at 37° C. […] Compounds were added in fresh medium to achieve 1% final DMSO. Appropriate vehicle or inhibitor controls were added into control wells individually to obtain minimum or maximum inhibition values, respectively, for the assay signal window before the plates were incubated for ˜24 h at 37° C. This procedure produces conditioned media in each well which is tested for Aβ(1-42) levels in the ELISA detection step described next. The remaining cell cultures in each well are also tested for cell toxicity as described below.
Coating of ELISA assay plates was initiated by addition of 50 μL/well of an in-house Aβ(1-42) specific antibody at (3 μg/mL) in 0.1 M NaHCO3 (pH 9.0) into black 384-well Maxisorp® plates (Nunc) and incubated overnight at 4° C. The capture antibody was then aspirated from the ELISA assay plates and plates were washed either 2×100 uL with a Matrical Squirt plate washer, or 3×90 uL with a Thermo Combi, using Wash Buffer (Dulbecco's PBS, 0.05% Tween 20). 90 μL/well of Blocking Buffer (Dulbecco's PBS, 1.0% BSA (Sigma A7030) was then added to plates. Ambient temperature incubation was allowed to proceed for a minimum of 2 h. Blocking buffer was then removed and 20 μL/well Assay Buffer (Dulbecco's PBS, 1.0% BSA (Sigma A7030), 0.05% Tween 20) was then added. At this point, 35 uL (40 uL prior to August, 2012) (in duplicate) of experimental conditioned media (described above) were transferred into wells of the blocked ELISA plates containing the capture antibody, followed by overnight incubation at 4° C. Cell toxicity was also measured in the corresponding remaining cells after removal of the conditioned media for the Aβ(1-42) assay by a colorimetric cell proliferation assay (CellTiter 96® AQueous One Solution Cell Proliferation Assay, Promega) according to the manufacturer's instructions.
After overnight incubation of the ELISA assay plates at 4° C., unbound Aβ peptides were removed via either 2×100 uL washes with a Matrical Squirt plate washer, or 3×90 uL washes with a Thermo Combi, using Wash Buffer. Europium (Eu) labeled (custom labeled, PerkinElmer) Aβ(1-16) 6e10 Monoclonal Antibody (Covance #SIG-39320) was added, (50 μL/well Eu-6e10 @ 1:10,000, 20 uM EDTA) in Assay Buffer. […] Following 30 to 60 min ambient temperature incubation, the plates were read on an EnVision plate reader (PerkinElmer) using standard DELFIA TRF settings. […]

Compound | IC50 (Table 5, footnote 1: single determination, read-out: Aβ 42B IC50 (nM), IC50 value is from a single determination) [nM] | IC50 [1] [nM]
2-[(4′-fluorobiphenyl-3-yl)methyl]- 7-(4-methyl-1H-imidazol-1-yl)- 3,4-dihydro-2H-pyrido[1,2- a]pyrazine-1,6-dione, formate salt [Example 12] | 83.4 | –
2-[(7-chloro-6,8-dimethoxyquinolin-2- yl)methyl]-7-(4-methyl-1H-imidazol- 1-yl)-3,4-dihydro-2H-pyrido[1,2- a]pyrazine-1,6-dione [Example 87] | – | 150
Cc1cn(-c2ccc3n(c2=O)CCN(CC2(c4ccc(Cl)cc4)CC2)C3=O)cn1 [Example 17, 2-{[1-(4-chlorophenyl)cyclopropyl]methyl}-7-(4-methyl-1H-imidazol-1-yl)-3,4-dihydro-2H-pyrido[1,2-a]pyrazine-1,6-dione, trifluoroacetate salt] | – | 410
Cc1cn(-c2ccc3n(c2=O)CCN(Cc2nc(C4(c5ccc(Cl)cc5)CCC4)no2)C3=O)cn1 [Example 18, 2-({3-[1-(4-chlorophenyl)cyclobutyl]-1,2,4-oxadiazol-5-yl}methyl)-7-(4-methyl-1H-imidazol-1-yl)-3,4-dihydro-2H-pyrido[1,2-a]pyrazine-1,6-dione, trifluoroacetate salt] | – | 169
